PubChem BioAssay (NCI)
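Assay format: 96-well plates, 48-hour exposure. TGI marks complete inhibition of growth.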

Experiments:
Assay in all cases: NCI anticancer screen, dose series, 48 h
TK-10 renal = test system: TK-10 renal
UACC-257 melanoma = test system: UACC-257 melanoma
MOLT-4 leukemia = test system: MOLT-4 leukemia
U251 CNS = test system: U251 CNS
MDA-MB-435 = test system: MDA-MB-435
NCI-H460 lung = test system: NCI-H460 lung
LOX IMVI melanoma = test system: LOX IMVI melanoma
HCT-15 colon = test system: HCT-15 colon
SR leukemia = test system: SR leukemia
T-47D breast = test system: T-47D breast
CAKI-1 renal = test system: CAKI-1 renal
HS 578T breast = test system: HS 578T breast
NCI-H522 lung = test system: NCI-H522 lung
DU-145 prostate = test system: DU-145 prostate
HCC-2998 colon = test system: HCC-2998 colon
SF-539 CNS = test system: SF-539 CNS
HCT-116 colon = test system: HCT-116 colon
RXF 393 renal = test system: RXF 393 renal
A498 renal = test system: A498 renal

Structure (SMILES) | TGI (TK-10 renal) [µM] | TGI (UACC-257 melanoma) [µM] | TGI (MOLT-4 leukemia) [µM] | TGI (U251 CNS) [µM] | TGI (MDA-MB-435) [µM] | TGI (NCI-H460 lung) [µM] | TGI (LOX IMVI melanoma) [µM] | TGI (HCT-15 colon) [µM] | TGI (SR leukemia) [µM] | TGI (T-47D breast) [µM] | TGI (CAKI-1 renal) [µM] | TGI (HS 578T breast) [µM] | TGI (NCI-H522 lung) [µM] | TGI (DU-145 prostate) [µM] | TGI (HCC-2998 colon) [µM] | TGI (SF-539 CNS) [µM] | TGI (HCT-116 colon) [µM] | TGI (RXF 393 renal) [µM] | TGI (A498 renal) [µM]
CC1(C)C[C@@H]2C1CCC1(C)CC2(O)CC[C@H]1O (stereo partly specified) | > 100 | > 100 | > 100 | > 100 | > 100 | > 100 | > 100 | > 100 | > 100 | > 100 | > 100 | > 100 | > 100 |  |  |  |  |  | 
COCc1nc2c(OC)c(-c3nc4nc(N5CCN(C)CC5)ccc4[nH]3)cc(OC)c2n1C |  | 36.4 | 49.6 | 61.9 | 48.4 | 78.8 | 39.5 | > 100 |  | > 100 | > 100 | > 100 | 86.4 | > 100 | 32.4 | 27.1 | > 100 | 57.6 | 
CCOC(=O)Cc1nc2cc(F)c(F)cc2[nH]c1=O | > 100 | > 100 | > 100 | > 100 | > 100 | > 100 | > 100 | > 100 |  |  | > 100 | > 100 |  | > 100 | > 100 | > 100 | > 100 | > 100 | 
CC(=O)O[C@H]1C(=O)[C@@]2(C)[C@H]([C@H](OC(=O)c3ccoc3)[C@]3(O)C[C@H](OC(=O)[C@H](O)[C@@H](NC(=O)c4ccccc4)c4ccccc4)C(C)=C1C3(C)C)[C@]1(OC(C)=O)CO[C@@H]1C[C@@H]2O | > 12.5 | > 12.5 | > 11.6 | > 12.5 | 0.0236 | > 3.73 | > 12.5 | > 12.5 |  | > 12.5 | > 12.5 | 0.612 |  | > 12.5 | 0.998 | 0.221 | 0.366 | > 11.8 | > 12.5
COc1cc(OC)c2c(C)cc(=O)oc2c1 | > 100 | > 100 | > 100 | > 100 | > 100 |  | > 100 | > 100 | > 100 |  |  | > 100 |  | > 100 |  | > 100 | > 100 |  | 76.5
CC(C)OC(=O)/C=C/C(=O)O/C=C/[N+](=O)[O-] | > 100 | > 100 | 36.5 | > 100 | > 100 | > 100 | 32.9 | > 100 | 71.6 | 46.4 | > 100 |  |  | > 100 | 50.2 | > 100 | 54.3 | 44 | 40.4
N#C/C(=C/NC(N)=S)C(N)=O | > 100 | > 100 |  | > 100 | > 100 | > 100 | > 100 | > 100 |  | > 100 | > 100 |  |  | > 100 | > 100 | > 100 | > 100 | > 100 | > 100
CCOc1ncn(-c2ccc(NC(=S)NC3OC(CO)C(O)C(O)C3O)cc2)n1 (stereo unspecified) | > 100 | > 100 | > 100 | > 100 | > 100 | > 100 | > 100 | > 100 | > 100 | > 100 |  |  | > 100 | > 100 | > 100 | > 100 | > 100 |  | 
CCc1cc(Cc2cc(CC)c(NC(=O)C(=O)CC(=O)c3sc(-c4cccnc4)nc3C)c(CC)c2)cc(CC)c1NC(=O)C(=O)CC(=O)c1sc(-c2cccnc2)nc1C |  | > 100 | > 100 | > 100 | > 100 | > 100 | > 100 | > 100 |  | > 100 |  | > 100 | > 100 | > 100 | > 100 | > 100 | > 100 | > 100 | > 100
Cc1ccc2c3c1O[C@H]1c4[nH]c5ccccc5c4C[C@@]4(O)[C@@H](C2)N(CC2CC2)CC[C@]314 | 31.7 | 32.8 | 32.9 | 28.2 | 26.8 | 30.5 | 33.1 | 38.1 | 46.8 | 36.6 | 30.4 |  | 29.5 | 30.5 | 12.5 | 31.6 | 27.9 | 20.8 | 31.8
Nc1nc(-[n+]2ccc(-c3ccncc3)cc2)nc(Cl)c1Cl | 59 | 40.8 | 37.2 | > 100 | > 100 | > 100 | 33.2 | > 100 | 41 | 45.9 |  |  |  | > 100 | > 100 | 68.1 | > 100 | 32.8 | > 100
CC(C)=C[C@H]1CCC2(OCCO2)[C@]1(C)CO | > 100 | > 100 |  |  | > 100 | > 100 | > 100 | > 100 |  | > 100 | > 100 |  | > 100 |  | > 100 | > 100 | > 100 | > 100 | > 100
O=c1c2ccccc2nc(Cc2nc(-c3ccc(Cl)cc3)cs2)n1-c1ccc(Cl)cc1 | > 100 | > 100 | > 100 | > 100 | > 100 | > 100 | > 100 | > 100 |  |  | > 100 | > 100 | > 100 | > 100 | > 100 |  | > 100 | > 100 | > 100
Cc1ccc([N+](=O)[O-])c2c(NCCC[N+](C)(C)[O-])c3ccccc3nc12 | 80.5 | 6.11 |  | 7.32 | 5.15 | 5.14 | 9.2 | 33 |  | 7 | 97 | 21.7 |  | 8.19 | 2.55 | 9.76 | 5 | 3.02 | 4.84
CC(C)=CCC(O)[C@](C)(O)[C@H]1[C@H](O)C[C@@]2(C)[C@@H]3CCc4cc(O)c(OC5OC(CO)C(O)C(O)C5O)cc4C3(C)C(=O)C[C@]12C (stereo partly specified) | > 100 | > 100 | > 100 | > 100 | > 100 | > 100 |  | > 100 | > 100 | > 100 | > 100 |  | > 100 | > 100 | > 100 | > 100 | > 100 | > 100 | > 100
O=C1NC(=S)NC(=O)C1C(c1ccc(O)cc1)C1C(=O)NC(=S)NC1=O | > 100 | > 100 | > 100 | > 100 | > 100 | > 100 | > 100 | > 100 |  | > 100 | > 100 |  | > 100 | > 100 |  |  | > 100 | > 100 | > 100
CN(C)CCCN=c1c2ccccc2n(O)c2ccccc12 | > 100 | > 100 | > 100 | > 100 | > 100 | > 100 | > 100 | > 100 |  | > 100 | > 100 | > 100 | > 100 | > 100 |  | > 100 | > 100 | > 100 | > 100
Cn1c([C@H](C#N)c2ncccc2[N+](=O)[O-])nc2ccccc21 | > 100 | > 100 | > 100 | > 100 | > 100 | > 100 | > 100 | > 100 | > 100 |  | > 100 | 75.1 | 38.3 |  | > 100 | 95.4 | > 100 | 97.7 | > 100
O=C(/C=C/c1ccc2ccccc2c1)NCc1ccc(C(=O)NCCc2ccccc2)cc1 |  | > 100 | > 100 | > 100 | > 100 | > 100 | > 100 | > 100 | > 100 | > 100 | > 100 |  |  | > 100 | > 100 |  | > 100 | > 100 | > 100
O=C(NC(Cc1ccccc1)(Cc1ccc(O)cn1)C(=O)O)c1ccccc1 (stereo unspecified) | > 100 | > 100 | > 100 | > 100 | > 100 | > 100 | > 100 | > 100 |  |  | > 100 | > 100 | > 100 | > 100 | > 100 | > 100 | > 100 | > 100 | 
O=C1CC(c2cccc([N+](=O)[O-])c2)C2(C(=O)NC(=O)NC2=O)C(c2cccc([N+](=O)[O-])c2)C1 (stereo unspecified) |  | > 100 | > 100 | > 100 | > 100 | > 100 | > 100 | > 100 | > 100 |  |  | > 100 | > 100 | > 100 |  | > 100 | 42.8 | 61.1 | > 100
CC(C)=C[C@H]1CCC2(OCCO2)[C@]1(C)COCc1ccccc1 | > 100 | 46.4 | 32.3 |  | > 100 | 59 | 31 | > 100 |  | > 100 | > 100 |  | 62.1 |  | 37.4 | 61.7 | > 100 | 31.7 | 66.7
c1ccc(CNc2nncc3[nH]cnc23)cc1 | > 100 | > 100 | > 100 | > 100 | > 100 |  | > 100 | > 100 | > 100 | > 100 | > 100 |  | > 100 |  | > 100 | > 100 | > 100 |  | > 100
Nc1nc(-c2ccccc2)cc(-c2ccc(OCc3ccccc3)cc2O)n1 | 91 | > 100 | > 100 | > 100 | > 100 | > 100 | > 100 | > 100 | > 100 |  | > 100 | > 100 | 90.7 | > 100 | > 100 | > 100 | > 100 | 76.8 | > 100
NNC(=S)N/N=C(/C(=O)Nc1ccc(Cl)c(Cl)c1)C(C1OC(=O)c2ccccc21)[N+](=O)[O-] (stereo unspecified) | > 100 | > 100 | > 100 | > 100 | > 100 | > 100 | > 100 | > 100 |  | > 100 | > 100 | > 100 | > 100 |  | > 100 | > 100 | > 100 | > 100 | > 100
CN=C(SC)N(C)c1nc(=[N+](C)C)ss1 | > 100 | > 100 | > 100 | > 100 |  |  | > 100 | > 100 | > 100 |  | > 100 |  | > 100 |  | > 100 |  | > 100 | > 100 | > 100
CSc1nnc(SC)nn1 | 25.8 | 30.3 | 2.37 | 41.8 | 32.4 | 32.9 | 38 | 35.2 |  | > 100 | 31.4 | 77.1 | 31.6 | 45.4 |  | 32.1 | 23.9 | 30.3 | > 100
C(/C=C/Nc1ccc(Oc2ccccc2)cc1)=Nc1ccc(Oc2ccccc2)cc1 | 34.7 | 32 |  | 33.2 | 31.7 | 30.6 | 28.2 | 33.6 | 39.7 |  | 32.7 | 43.4 | 37.7 | 39.5 | 29.4 | 32.9 | 31.2 | 39.6 | 29.7
